Assay results: patent US10407467B2, “Polymyxin derivatives and their use in combination therapy together with different antibiotics” (priority 2013, dated 2019)
Counter-ions that a name gives are not always drawn. Numbered stars: 1 amine (or outer) side, 2 acyl side, 3 side chain; on linkers, the order of the positions; unused ones are H or OH. Bridge positions count the residues as written; N and C are the ends. Square brackets hold non-standard residues; d marks the D form. Peptide text beside a SMILES is read from it. * marks the point of attachment. ξ: configuration not given here. X25 = CC(O)[C@@H](C(=O)[*:2])N(CCC1(N)CCCCC1)[*:1]; Hyp = O=C(O)[C@@H]1C[C@@H](O)CN1; X24 = O=C(CCN1CCS(=O)(=O)CC1)*; Thr(3ξ) = CC(O)[C@H](N)C(=O)O; Chg = N[C@H](C(=O)O)C1CCCCC1; 4Abz = Nc1ccc(C(=O)O)cc1; Dab = NCC[C@H](N)C(=O)O

Columns and labels:
Type in all cases: cell-based
Klebsiella pneumoniae [1] = experiment: MIC, compound in combination with a second agent (broth microdilution); details: 1:1 (wt:wt) combination with Rifampicin
Method: (§1) To evaluate the potency and spectrum of the compounds both alone and in combination with another agent, susceptibility testing was performed against up to four strains of each of the four Gram negative pathogens, Escherichia coli, Pseudomonas aeruginosa, Klebsiella pneumoniae and Acinetobacter baumannii.
(§2) Ratios of components in a combination, such as 1:1, refers to a weight to weight ratio. The minimum inhibitory concentration (MIC) refers to the total drug concentration (e.g. test compound plus second agent, such as Rifampicin).
(§3) The inoculum was prepared by making a direct suspension of isolated colonies (selected from an 18-24 hour Mueller-Hinton agar plate) adjusted to the 0.5 McFarland standard.
(§4) The assays were performed in duplicate.
(§5) In cases where the duplicate values varied by less than 2-fold, the lower of the two values is reported. If a variation of greater than 2-fold was observed, the assay was considered non-valid. Several of the compounds were subjected to multiple tests, and where this is the case, the MIC reflects the modal value obtained.
(§6) The minimum inhibitory concentration refers to the total drug concentration (e.g. test compound plus Rifampicin). The compounds are used at equal mass within the combination. The weight refers to the mass of compound as used, for example the Example Compounds are used in their TFA or sulphate salt forms.
(§7) MICs refer to the total drug concentration. Thus, where a 1:1 combination is used, this is the amount of the test compound plus the second agent. For comparison, the MIC values for the second agent alone are also given.

Pseudomonas aeruginosa [2] = experiment: as above; details: 1:1 (wt:wt) combination with Rifampicin
Method: as §1, §2, §3, §4, §5, §6, §7

Escherichia coli = experiment: MIC, sole activity (no second agent); details: in the absence of Rifampicin; strain ATCC25922
Method: as §1, §3, §4, §5
(§8) MICs were determined as described herein, except that a different supplier of Cation-adjusted MHB was used. […] Values are reported relative to Polymyxin B.

Klebsiella pneumoniae [3] = experiment: MIC, sole activity (no second agent); details: in the absence of Rifampicin; strain ATCC 4352
Method: as §1, §3, §4, §5, §8

Pseudomonas aeruginosa [4] = experiment: MIC, sole activity (no second agent); details: in the absence of Rifampicin; strain ATCC27853
Method: as §1, §3, §4, §5, §8

[5] = MIC = total drug concentration, strain ATCC-BAA-2146
[6] = MIC = total drug concentration, strain CCUG-59348
[7] = MIC = total drug concentration, strain NCTC 13438
[8] = MIC = total drug concentration, strain CCUG 59626
[9] = MIC is total drug concentration

Compound | MIC K. pneumoniae ATCC-BAA-2146 (Klebsiella pneumoniae [1]; [5]) [micrograms/mL] | MIC K. pneumoniae CCUG-59348 (Klebsiella pneumoniae [1]; [6]) [micrograms/mL] | MIC K. pneumoniae NCTC 13438 (Klebsiella pneumoniae [1]; [7]) [micrograms/mL] | MIC P. aeruginosa CCUG 59626 (Pseudomonas aeruginosa [2]; [8]) [micrograms/mL] | MIC E. coli ATCC25922 (Escherichia coli) [micrograms/mL] | MIC K. pneumoniae ATCC 4352 (Klebsiella pneumoniae [3]) [micrograms/mL] | MIC P. aeruginosa ATCC 27853 (Pseudomonas aeruginosa [4]) [micrograms/mL] | MIC K. pneumoniae ATCC-BAA-2146 (Klebsiella pneumoniae [1]; [9]) [micrograms/mL] | MIC K. pneumoniae CCUG-59348 (Klebsiella pneumoniae [1]; [9]) [micrograms/mL] | MIC K. pneumoniae NCTC 13438 (Klebsiella pneumoniae [1]; [9]) [micrograms/mL] | MIC P. aeruginosa CCUG 59626 (Pseudomonas aeruginosa [2]; [9]) [micrograms/mL]
CCCCCCC(O)C(=O)N[C@H](C(=O)N[C@@H](CCN)C(=O)N[C@H]1CCNC(=O)[C@H](C(C)O)NC(=O)[C@H](CCN)NC(=O)[C@H](CCN)NC(=O)[C@H](CC(C)C)NC(=O)[C@@H](CC(C)C)NC(=O)[C@H](CCN)NC1=O)C(C)O (mixture of isomers) [Example 19, 2-(RS)-2- Hydroxyoctanoyl polymyxin E nonapeptide] | 2 | 2 | 0.5 | 1 | 8 | 8 | 4 | – | – | – | –
CC(C)C[C@@H]1NC(=O)[C@@H](Cc2ccccc2)NC(=O)[C@H](CCN)NC(=O)[C@@H](NC(=O)[C@H](CCN)NC(=O)[C@@H](NC(=O)c2ccc(N)cc2)C(C)O)CCNC(=O)[C@H](C(C)O)NC(=O)[C@H](CCN)NC(=O)[C@H](CCN)NC1=O (some centres unmarked) [Example 5, 4-Aminobenzoyl polymyxin B nonapeptide] (H-[4Abz][Thr(3ξ)][Dab][Dab][Dab][dF]L[Dab][Dab][Thr(3ξ)]; lactam 4-C) | 1 | 2 | 1 | 0.25 | – | – | – | 1 | 2 | 1 | 0.25
CC(C)C[C@@H]1NC(=O)[C@@H](Cc2ccccc2)NC(=O)[C@H](CCN)NC(=O)[C@@H](NC(=O)[C@H](CCN)NC(=O)[C@@H](NC(=O)CCN2CCS(=O)(=O)CC2)C(C)O)CCNC(=O)[C@H](C(C)O)NC(=O)[C@H](CCN)NC(=O)[C@H](CCN)NC1=O (some centres unmarked) [Example 12, 3-(1,1-dioxo-thiomorpholine-4-yl)propanoyl Polymyxin B nonapeptide] (X24-[Thr(3ξ)][Dab][Dab][Dab][dF]L[Dab][Dab][Thr(3ξ)]; lactam 3-C) | 4 | 16 | 4 | 0.5 | – | – | – | – | – | – | –
CC(C)C[C@@H]1NC(=O)[C@@H](Cc2ccccc2)NC(=O)[C@H](CCN)NC(=O)[C@@H](NC(=O)[C@H](CCN)NC(=O)[C@@H](NC(=O)[C@@H]2C[C@@H](O)CN2)C(C)O)CCNC(=O)[C@H](C(C)O)NC(=O)[C@H](CCN)NC(=O)[C@H](CCN)NC1=O (stereo partly drawn) [Example 35, (2S,4R)-4-Hydroxy-2-pyrrolidine carbonyl polymyxin B nonapeptide, trifluoroacetate salt] (H-[Hyp][Thr(3ξ)][Dab][Dab][Dab][dF]L[Dab][Dab][Thr(3ξ)]; lactam 4-C) | 4 | 16 | 4 | 0.5 | – | – | – | – | – | – | –
CC(C)C[C@@H]1NC(=O)[C@@H](Cc2ccccc2)NC(=O)[C@H](CCN)NC(=O)[C@@H](NC(=O)[C@H](CCN)NC(=O)[C@@H](NC(=O)[C@@H](N)C2CCCCC2)C(C)O)CCNC(=O)[C@H](C(C)O)NC(=O)[C@H](CCN)NC(=O)[C@H](CCN)NC1=O (stereo partly drawn) [Example 40, 2-(S)-(2-amino-2-cyclohexyl)ethanoyl polymyxin B nonapeptide, trifluoroacetate salt] (H-[Chg][Thr(3ξ)][Dab][Dab][Dab][dF]L[Dab][Dab][Thr(3ξ)]; lactam 4-C) | 2 | 8 | – | 0.5 | – | – | – | – | – | – | –
CC(C)C[C@@H]1NC(=O)[C@@H](Cc2ccccc2)NC(=O)[C@H](CCN)NC(=O)[C@@H](NC(=O)[C@H](CCN)NC(=O)[C@@H](NCCC2(N)CCCCC2)C(C)O)CCNC(=O)[C@H](C(C)O)NC(=O)[C@H](CCN)NC(=O)[C@H](CCN)NC1=O (some centres unmarked) [Example 49, N-[2-(1-aminocyclohexyl)ethyl] Polymyxin B nonapeptide] (H-[X25][Dab][Dab][Dab][dF]L[Dab][Dab][Thr(3ξ)]; lactam 3-C) | 2 | 8 | – | 0.25 | – | – | – | – | – | – | –
